Experimental data published in ChEMBL document CHEMBL1139672, “1,2,3,4-Tetrahydroisoquinolinyl sulfamic acids as phosphatase PTP1B inhibitors” (Bioorg Med Chem Lett, 2006).

molecular target: T1, Tyrosine-protein phosphatase non-receptor type 2 (Homo sapiens, UniProt P17706); test: Inhibition of TCPTP
T1 sequence (P17706 whole entry): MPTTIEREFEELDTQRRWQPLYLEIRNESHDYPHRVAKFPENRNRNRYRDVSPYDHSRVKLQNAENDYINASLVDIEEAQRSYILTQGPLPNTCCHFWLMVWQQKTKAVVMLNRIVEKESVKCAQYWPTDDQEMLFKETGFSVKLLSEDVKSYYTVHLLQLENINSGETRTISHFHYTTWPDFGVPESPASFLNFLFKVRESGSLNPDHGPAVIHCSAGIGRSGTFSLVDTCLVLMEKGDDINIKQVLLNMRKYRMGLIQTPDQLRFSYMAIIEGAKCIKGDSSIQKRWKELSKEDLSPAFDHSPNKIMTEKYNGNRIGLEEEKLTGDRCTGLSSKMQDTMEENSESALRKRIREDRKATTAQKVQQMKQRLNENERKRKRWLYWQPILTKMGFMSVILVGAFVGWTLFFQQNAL

| IC50 [µM] | Structure (SMILES) |
| --- | --- |
| 169 | CNC(=O)[C@@H]1Cc2ccc(NS(=O)(=O)O)cc2CN1C(=O)OC(C)(C)C |
| 80.1 | CNC(=O)[C@H](Cc1ccc(NS(=O)(=O)O)cc1)NC(=O)OC(C)(C)C |
| 204 | O=C(CCc1cccc(NS(=O)(=O)O)c1)NCc1cccc(NS(=O)(=O)O)c1 |
| 68.6 | O=C(CCc1cccc(NS(=O)(=O)O)c1)N1CCc2ccc(NS(=O)(=O)O)cc2C1 |

molecular target: T2, Tyrosine-protein phosphatase non-receptor type 1 (Homo sapiens, UniProt P18031); test: Inhibition of PTP1B
T2 sequence (P18031 whole entry): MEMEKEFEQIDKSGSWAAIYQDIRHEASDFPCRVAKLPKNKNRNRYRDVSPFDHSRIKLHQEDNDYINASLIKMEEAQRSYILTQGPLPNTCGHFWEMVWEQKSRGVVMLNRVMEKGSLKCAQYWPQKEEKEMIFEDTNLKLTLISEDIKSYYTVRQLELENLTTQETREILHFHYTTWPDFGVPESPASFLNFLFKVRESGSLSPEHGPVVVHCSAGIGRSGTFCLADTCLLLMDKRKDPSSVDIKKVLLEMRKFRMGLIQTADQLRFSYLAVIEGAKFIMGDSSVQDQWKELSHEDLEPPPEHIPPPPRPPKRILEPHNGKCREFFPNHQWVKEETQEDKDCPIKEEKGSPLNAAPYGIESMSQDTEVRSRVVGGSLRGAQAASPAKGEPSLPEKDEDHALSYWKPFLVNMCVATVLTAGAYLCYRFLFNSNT

| IC50 [µM] | Structure (SMILES) |
| --- | --- |
| 64.4 | CNC(=O)[C@@H]1Cc2ccc(NS(=O)(=O)O)cc2CN1C(=O)CCc1ccccc1 |
| 95.3 | CNC(=O)[C@@H]1Cc2ccc(NS(=O)(=O)O)cc2CN1C(=O)COc1ccccc1 |
| 164 | CNC(=O)[C@@H]1Cc2ccc(NS(=O)(=O)O)cc2CN1C(=O)NCc1ccccc1 |
| 225 | CNC(=O)[C@@H]1Cc2ccc(NS(=O)(=O)O)cc2CN1C(=O)CCc1ccc(C(F)(F)F)cc1 |
| 184 | CNC(=O)[C@@H]1Cc2ccc(NS(=O)(=O)O)cc2CN1C(=O)CCc1cc(NS(C)(=O)=O)cc(C(F)(F)F)c1 |
| 42.5 | CNC(=O)[C@@H]1Cc2ccc(NS(=O)(=O)O)cc2CN1C(=O)OC(C)(C)C |
| 8.23 | Cc1noc([C@@H]2Cc3ccc(NS(=O)(=O)O)cc3CN2C(=O)OC(C)(C)C)n1 |
| 198 | CNC(=O)[C@@H]1Cc2ccc(NS(=O)(=O)O)cc2CN1C(=O)CCc1ccc(C)cc1 |
| 39.6 | CNC(=O)[C@H](Cc1ccc(NS(=O)(=O)O)cc1)NC(=O)OC(C)(C)C |
| 146 | CNC(=O)[C@@H]1Cc2ccc(NS(=O)(=O)O)cc2CN1C(=O)CCc1cccc(C(F)(F)F)c1 |
| 36.7 | CNC(=O)[C@@H]1Cc2ccc(NS(=O)(=O)O)cc2CN1C(=O)CCc1coc2ccccc12 |
| 242 | CNC(=O)[C@@H]1Cc2ccc(NS(=O)(=O)O)cc2CN1C(=O)CCc1ccc(OC)cc1 |
| 82.1 | CNC(=O)[C@@H]1Cc2ccc(NS(=O)(=O)O)cc2CN1C(=O)CCc1cccc(O)c1 |
| > 500 | CNC(=O)[C@@H]1Cc2ccc(NS(=O)(=O)O)cc2CN1C(=O)[C@H](Cc1ccccc1)NC(=O)OC(C)(C)C |
| 83.6 | CNC(=O)[C@@H]1Cc2ccc(NS(=O)(=O)O)cc2CN1C(=O)CCOc1ccccc1 |
| 19 | COC(=O)[C@@H]1Cc2ccc(NS(=O)(=O)O)cc2CN1C(=O)OC(C)(C)C |
| 93.4 | CNC(=O)[C@@H]1Cc2ccc(NS(=O)(=O)O)cc2CN1C(=O)COc1cccc(O)c1C(=O)OC |
| 271 | CNC(=O)[C@@H]1Cc2ccc(NS(=O)(=O)O)cc2CN1C(=O)CCCc1ccccc1 |
| 286 | CNC(=O)[C@@H]1Cc2ccc(NS(=O)(=O)O)cc2CN1C(=O)c1ccccc1 |
| 24.9 | CNC(=O)[C@@H]1Cc2ccc(NS(=O)(=O)O)cc2CN1C(=O)/C=C/c1coc2ccccc12 |
| 101 | CNC(=O)[C@@H]1Cc2ccc(NS(=O)(=O)O)cc2CN1C(=O)CCc1cccc(Cl)c1 |
| 16.7 | CC(C)COC(=O)[C@@H]1Cc2ccc(NS(=O)(=O)O)cc2CN1C(=O)OC(C)(C)C |
| 154 | CNC(=O)[C@@H]1Cc2ccc(NS(=O)(=O)O)cc2CN1C(=O)CCC(=O)O |
| 51.4 | CC(C)(C)OC(=O)N1Cc2cc(NS(=O)(=O)O)ccc2C[C@H]1C(=O)NCCc1ccccc1 |
| 26 | O=C(CCc1cccc(NS(=O)(=O)O)c1)N1CCc2ccc(NS(=O)(=O)O)cc2C1 |
| 120 | CC(C)(C)OC(=O)N1Cc2cc(NS(=O)(=O)O)ccc2C[C@H]1C(=O)NCc1ccccc1 |
| > 500 | CC(C)(C)OC(=O)N1Cc2cc(NS(=O)(=O)O)ccc2C[C@H]1CO |
| 148 | CNC(=O)[C@@H]1Cc2ccc(NS(=O)(=O)O)cc2CN1C(=O)CCCCc1ccccc1 |
